Read-outs that look alike come from different tables or passages of the source.
Target: T1, Recombinant human TPH1 (MBP tagged) (Homo sapiens, UniProt P17752)
T1 construct: cloning full length human TPH1 cDNA in to a bacterial pMAL-c5E expression vector; made in house; host or cells: E. coli BL21 (DE3)
T1 sequence (P17752 1-444): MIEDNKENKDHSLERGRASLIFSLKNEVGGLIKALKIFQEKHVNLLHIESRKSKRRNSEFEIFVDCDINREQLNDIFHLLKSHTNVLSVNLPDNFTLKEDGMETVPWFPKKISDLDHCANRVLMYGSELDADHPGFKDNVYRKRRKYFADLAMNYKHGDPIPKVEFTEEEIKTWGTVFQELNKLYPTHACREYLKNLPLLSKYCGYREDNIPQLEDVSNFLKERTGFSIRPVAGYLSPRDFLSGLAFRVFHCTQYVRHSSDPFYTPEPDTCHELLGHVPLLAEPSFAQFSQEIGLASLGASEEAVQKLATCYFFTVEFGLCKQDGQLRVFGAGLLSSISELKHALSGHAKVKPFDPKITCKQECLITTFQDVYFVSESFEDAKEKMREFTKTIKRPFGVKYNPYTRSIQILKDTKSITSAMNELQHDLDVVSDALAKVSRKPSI
Test: TPH1 in vitro inhibition assay (kinetic fluorescence)
Type: biochemical
Summary of the method: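 Final mix: 15 nM MBP-TPH1, 30 μM Trp, 36 μM 6-methyltetrahydropterin, 25 μM ferrous ammonium sulfate, 50 mM MES pH 7.1, 1% DMSO, room temperature.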

[1] = read-out: TPH1 Range (TPH1 inhibition IC50)

SMILES	IC50 [1] [µM]	IC50 (TPH1 Range (TPH1 inhibition IC50)) [µM]
Cc1ccc(-c2ccc([C@@H](Oc3cc(N4CCC5(CC4)CN[C@H](C(=O)O)C5)nc(N)n3)C(F)(F)F)cc2)cc1 [Example 55cw, (S)-8-(2-amino-6-((R)-2,2,2-trifluoro-1-(4′-methyl-[1,1′-biphenyl]-4-yl)ethoxy)pyrimidin-4-yl)-2,8-diazaspiro[4.5]decane-3-carboxylic acid]	0.3 to 3	–
Nc1nc(O[C@H](c2ccc(-c3ccccc3CO)cc2)C(F)(F)F)cc(N2CCC3(CC2)CN[C@H](C(=O)O)C3)n1 [Example 55bu, (S)-8-(2-amino-6-((R)-2,2,2-trifluoro-1-(2′-(hydroxymethyl)-[1,1′-biphenyl]-4-yl)ethoxy)pyrimidin-4-yl)-2,8-diazaspiro[4.5]decane-3-carboxylic acid]	0.3 to 3	–
Nc1nc(O[C@H](c2ccc(-c3ccc(C(=O)O)c(O)c3)cc2)C(F)(F)F)cc(N2CCC3(CC2)CN[C@H](C(=O)O)C3)n1 [Example 55ag, (S)-8-(2-amino-6-((R)-1-(4′-carboxy-3′-hydroxy-[1,1′-biphenyl]-4-yl)-2,2,2-trifluoroethoxy)pyrimidin-4-yl)-2,8-diazaspiro[4.5]decane-3-carboxylic acid]	0.05 to 0.3	–
Cc1cccc(-c2ccc([C@@H](Oc3cc(N4CCC5(CC4)CN[C@H](C(=O)O)C5)nc(N)n3)C(F)(F)F)cc2)c1C [Example 55cn, (S)-8-(2-amino-6-((R)-1-(2′,3′-dimethyl-[1,1′-biphenyl]-4-yl)-2,2,2-trifluoroethoxy)pyrimidin-4-yl)-2,8-diazaspiro[4.5]decane-3-carboxylic acid]	0.3 to 3	–
Nc1nc(O[C@H](c2ccc(Cl)cc2-c2cccc(C(=O)NC3CCC(O)CC3)c2)C(F)(F)F)cc(N2CCC3(CC2)CN[C@H](C(=O)O)C3)n1 (stereo partly drawn) [Example 34cc, (S)-8-(2-amino-6-((R)-1-(5-chloro-3′-(((1R,4R)-4-hydroxycyclohexyl)carbamoyl)-[1,1′-biphenyl]-2-yl)-2,2,2-trifluoroethoxy)pyrimidin-4-yl)-2,8-diazaspiro[4.5]decane-3-carboxylic acid]	0.05 to 0.3	–
Nc1nc(O[C@@H](c2ccc(Cl)cc2-c2ccccc2)C(F)(F)F)cc(N2CCC3(CC2)CN[C@H](C(=O)O)C3)n1 [Example 54j, (S)-8-(2-amino-6-((S)-1-(5-chloro-[1,1′-biphenyl]-2-yl)-2,2,2-trifluoroethoxy)pyrimidin-4-yl)-2,8-diazaspiro[4.5]decane-3-carboxylic acid]	–	0.05 to 0.3
Cn1cc(-c2ccc([C@@H](Oc3cc(N4CCC5(CC4)CN[C@H](C(=O)O)C5)nc(N)n3)C(F)(F)F)cc2)ccc1=O [Example 55af, (S)-8-(2-amino-6-((R)-2,2,2-trifluoro-1-(4-(1-methyl-6-oxo-1,6-dihydropyridin-3-yl)phenyl)ethoxy)pyrimidin-4-yl)-2,8-diazaspiro[4.5]decane-3-carboxylic acid]	0.3 to 3	–
Nc1nc(O[C@H](c2ccc(-c3ccc(C(=O)N4CCCC4)cc3)cc2)C(F)(F)F)cc(N2CCC3(CC2)CN[C@H](C(=O)O)C3)n1 [Example 55bp, (S)-8-(2-amino-6-((R)-2,2,2-trifluoro-1-(4′-(pyrrolidine-1-carbonyl)-[1,1′-biphenyl]-4-yl)ethoxy)pyrimidin-4-yl)-2,8-diazaspiro[4.5]decane-3-carboxylic acid]	0.05 to 0.3	–
Nc1nc(O[C@H](c2ccc(-c3ccccc3)cc2)C(F)(F)F)cc(N2CCC3(CC2)CN[C@H](C(=O)O)C3)n1 [Example 55a, (S)-8-(6-((R)-1-([1,1′-biphenyl]-4-yl)-2,2,2-trifluoroethoxy)-2-aminopyrimidin-4-yl)-2,8-diazaspiro[4.5]decane-3-carboxylic acid]	0.05 to 0.3	–
Nc1nc(O[C@H](c2ccc(-c3cncnc3)cc2)C(F)(F)F)cc(N2CCC3(CC2)CN[C@H](C(=O)O)C3)n1 [Example 55ay, (S)-8-(2-amino-6-((R)-2,2,2-trifluoro-1-(4-(pyrimidin-5-yl)phenyl)ethoxy)pyrimidin-4-yl)-2,8-diazaspiro[4.5]decane-3-carboxylic acid]	0.3 to 3	–
CC(C)(C)c1ccc(-c2ccc([C@@H](Oc3cc(N4CCC5(CC4)CN[C@H](C(=O)O)C5)nc(N)n3)C(F)(F)F)cc2)cc1 [Example 55ci, (S)-8-(2-amino-6-((R)-1-(4′-(tert-butyl)-[1,1′-biphenyl]-4-yl)-2,2,2-trifluoroethoxy)pyrimidin-4-yl)-2,8-diazaspiro[4.5]decane-3-carboxylic acid]	0.3 to 3	–
CNC(=O)c1ccc(-c2ccc([C@@H](Oc3cc(N4CCC5(CC4)CN[C@H](C(=O)O)C5)nc(N)n3)C(F)(F)F)cc2)cc1 [Example 55dg, (S)-8-(2-amino-6-((R)-2,2,2-trifluoro-1-(4′-(methylcarbamoyl)-[1,1′-biphenyl]-4-yl)ethoxy)pyrimidin-4-yl)-2,8-diazaspiro[4.5]decane-3-carboxylic acid]	0.05 to 0.3	–

More lines, main results first:

IC50 [1] [µM]	SMILES	IC50 (TPH1 Range (TPH1 inhibition IC50)) [µM]
0.05 to 0.3	Cc1ccn(-c2ccc(C(=O)O)cc2[C@@H](Oc2cc(N3CCC4(CC3)CN[C@H](C(=O)O)C4)nc(N)n2)C(F)(F)F)n1 [Example 24, (S)-8-(2-Amino-6-((R)-1-(5-carboxy-2-(3-methyl-H-pyrazol-1-yl)phenyl)-2,2,2-trifluoroethoxy)pyrimidin-4-yl)-2,8-diazaspiro[4.5]decane-3-carboxylic acid]	–
< 0.05	Cc1ccn(-c2cc(-c3ccc(CN)cc3)ccc2[C@@H](Oc2cc(N3CCC4(CC3)CN[C@H](C(=O)O)C4)nc(N)n2)C(F)(F)F)n1 [Example 1ab, (S)-8-(2-amino-6-((R)-1-(4′-(aminomethyl)-3-(3-methyl-1H-pyrazol-1-yl)-[1,1′-biphenyl]-4-yl)-2,2,2-trifluoroethoxy)pyrimidin-4-yl)-2,8-diazaspiro[4.5]decane-3-carboxylic acid]	–
< 0.05	Cc1ccn(-c2cc(-c3ccc4ncccc4c3)ccc2[C@@H](Oc2cc(N3CCC4(CC3)CN[C@H](C(=O)O)C4)nc(N)n2)C(F)(F)F)n1 [Example 1ad, (S)-8-(2-amino-6-((R)-2,2,2-trifluoro-1-(2-(3-methyl-1H-pyrazol-1-yl)-4-(quinolin-6-yl)phenyl)ethoxy)pyrimidin-4-yl)-2,8-diazaspiro[4.5]decane-3-carboxylic acid]	–
< 0.05	CSc1ccc(-c2ccc([C@@H](Oc3cc(N4CCC5(CC4)CN[C@H](C(=O)O)C5)nc(N)n3)C(F)(F)F)c(-n3ccc(C)n3)c2)cc1 [Example 1b, (S)-8-(2-amino-6-((R)-2,2,2-trifluoro-1-(3-(3-methyl-1H-pyrazol-1-yl)-4′-(methylthio)-[1,1′-biphenyl]-4-yl)ethoxy)pyrimidin-4-yl)-2,8-diazaspiro[4.5]decane-3-carboxylic acid]	–
0.05 to 0.3	Nc1nc(O[C@H](c2ccc(-c3cccc(O)c3)cc2)C(F)(F)F)cc(N2CCC3(CC2)CN[C@H](C(=O)O)C3)n1 [Example 55ca, (S)-8-(2-amino-6-((R)-2,2,2-trifluoro-1-(3′-hydroxy-[1,1′-biphenyl]-4-yl)ethoxy)pyrimidin-4-yl)-2,8-diazaspiro[4.5]decane-3-carboxylic acid]	–
< 0.05	Cc1ccn(-c2cc(-c3ccc(C(=O)N4CCNCC4)cc3)ccc2[C@@H](Oc2cc(N3CCC4(CC3)CN[C@H](C(=O)O)C4)nc(N)n2)C(F)(F)F)n1 [Example 1cj, (S)-8-(2-amino-6-((R)-2,2,2-trifluoro-1-(3-(3-methyl-1H-pyrazol-1-yl)-4′-(piperazine-1-carbonyl)-[1,1′-biphenyl]-4-yl)ethoxy)pyrimidin-4-yl)-2,8-diazaspiro[4.5]decane-3-carboxylic acid]	–
< 0.05	Cc1ccn(-c2cc(-c3cccc(OC(F)(F)F)c3)ccc2[C@@H](Oc2cc(N3CCC4(CC3)CN[C@H](C(=O)O)C4)nc(N)n2)C(F)(F)F)n1 [Example 1as, (S)-8-(2-amino-6-((R)-2,2,2-trifluoro-1-(3-(3-methyl-1H-pyrazol-1-yl)-3'-(trifluoromethoxy)-[1,1′-biphenyl]-4-yl)ethoxy)pyrimidin-4-yl)-2,8-diazaspiro[4.5]decane-3-carboxylic acid]	–
0.05 to 0.3	CC(C)Oc1ccc(-c2ccc([C@@H](Oc3cc(N4CCC5(CC4)CN[C@H](C(=O)O)C5)nc(N)n3)C(F)(F)F)c(-c3ccccc3)c2)cc1 [Example 54b, (S)-8-(2-amino-6-((R)-2,2,2-trifluoro-1-(4-isopropoxy-[1,1′:3′,1″-terphenyl]-4′-yl)ethoxy)pyrimidin-4-yl)-2,8-diazaspiro[4.5]decane-3-carboxylic acid]	–
< 0.05	CCOc1ccc(-c2ccc([C@@H](Oc3cc(N4CCC5(CC4)CN[C@H](C(=O)O)C5)nc(C)n3)C(F)(F)F)c(-n3ccc(C)n3)c2)cc1 [Example 29s, (S)-8-(6-((R)-1-(4′-ethoxy-3-(3-methyl-1H-pyrazol-1-yl)-[1,1′-biphenyl]-4-yl)-2,2,2-trifluoroethoxy)-2-methylpyrimidin-4-yl)-2,8-diazaspiro[4.5]decane-3-carboxylic acid]	–
0.05 to 0.3	Cc1ccn(-c2cc(-c3ccc(F)c(F)c3)ccc2[C@@H](Oc2cc(N3CCC4(CC3)CN[C@H](C(=O)O)C4)nc(N)n2)C(F)(F)F)n1 [Example 1au, (S)-8-(2-amino-6-((R)-1-(3′,4′-difluoro-3-(3-methyl-1H-pyrazol-1-yl)-[1,1′-biphenyl]-4-yl)-2,2,2-trifluoroethoxy)pyrimidin-4-yl)-2,8-diazaspiro[4.5]decane-3-carboxylic acid]	–
